The subject of test [1] is Bovine endothelial cells. Description: Attachment of endothelial cells to modified plastic surfaces (viable cell counts, trypan blue). In kind it is cell-based. The following applies: treated polyvinyl chloride surface; number of viable cells attached to each piece. How it is done:
B. Attachment of Bovine Endothelial Cells to Modified Plastic Surfaces. Bovine endothelial cells were collected from fetal animals 8-24" in length. Cornea, aorta and umbilical endothelial cells were harvested aseptically. Cells were grown in a 5% CO₂ incubator at 37°C in a known high glucose cell growth medium such as Dulbecco's modified Eagle's medium (described in R. Dulbecco and G. Freeman, Virology, Vol. 8:396 (1959) and J. D. Smith, G. Freeman, M. Vogt and R. Dulbecco, Virology, Vol. 12:185-196 (1960)) with 25mmole HEPES buffer, 10% bovine calf serum, and 2.5 micrograms amphotericin B/ml (the "growth media"). Once the plates, tubes or sheets were prepared; cell cultures were prepared from primary cell lines. The cells were detached from the cell culture surface with a 0.25% solution of trypsin and resuspended in the growth media. Cells were then counted using a trypan blue (0.4%) solution and a hemocytometer. Various concentrations of cells were layered on the prepared materials. Cell attachment was monitored for various time periods from 5 minutes to 14 days. Attachments were determined by at least two methods. In one, sample materials were removed from culture media and washed 2 times with sterile saline. Cell stains were then applied and total cells on the surface were counted. A second method was to trypsinize the cells off the surface with a trypsin solution and count using the trypan blue method. Representive results of the attachment and outgrowth of endothelial cells on precoated polyvinyl chloride plastic pieces are reported in Table 3. The number of viable cells attached to each piece were determined by trypan blue staining procedures.

Test [2] deals with Bovine endothelial cells. Description: Outgrowth measurement using endothelial cells from a point of origin. It counts as cell-based. The following applies: treated polyvinyl chloride surface.

Drawing on patent EP0326579B1, “IMPROVEMENT OF THE BIOCOMPATIBILITY OF SOLID SURFACES” (BIO-METRIC SYSTEMS, INC., priority 1986, dated 1988), this text covers 3-day cell counts, 7-day cell counts and 7-day outgrowth for two substances.

“ANP-EAC-COL: Human placenta Type IV collagen coupled to ANP-EAC-NOS (photolabeled collagen)”: in the test with Bovine endothelial cells [1], the 3-day cell counts was 14500 and the 7-day cell counts was 15833. For the same substance, the 7-day outgrowth in the test with Bovine endothelial cells [2] is recorded as 1.0-3.0 mm.

In the test on Bovine endothelial cells [1], “BBA-COL: Human placenta Type IV collagen coupled to the NOS ester of benzoylbenzoic acid” had a 3-day cell counts of 5749 and a 7-day cell counts of 21500. Moreover, the 7-day outgrowth in the test with Bovine endothelial cells [2] is 2.5-4.0 mm.
